# Assay results taken from US11254686B1 (Corvus Pharmaceuticals, Inc., priority 2017, dated 2022).
# Where two headings read alike, the source gives them in different places.
# Assays:
# adenosine A1 receptor [1] = target: T1, adenosine A1 receptor (Homo sapiens (Human), UniProt P30542); test: Adenosine receptor activity assay (Table 1), A1 cAMP; format: biochemical
# Protocol: (§1) Table 1. Compounds (e.g., Adenosine Receptor modulators) and activity assay results. The legend is as follows: A=<10 nM; B=10-50 nM; C=50-100 nM; D=100-500; and E=>500 nM. The ratio corresponds to the A2A activity to the A2B activity; or A2A/A2B.
# adenosine A3 receptor [2] = target: T2, adenosine A3 receptor (Homo sapiens (Human), UniProt P0DMS8); test: Adenosine receptor activity assay (Table 1), A3 cAMP; format: biochemical
# Protocol: as §1
# adenosine A2A receptor = adenosine A2A receptor (Homo sapiens (Human), UniProt P29274); test: Adenosine receptor activity assay (Table 1), A2A activity; format: biochemical; details: read-out: Ave A2A cAMP IC50
# [3] = Liver microsome intrinsic clearance (LM CLint), human; format: in vitro ADME
# [4] = Liver microsome intrinsic clearance (LM CLint), rat; format: in vitro ADME
# adenosine A2B receptor = adenosine A2B receptor (Homo sapiens (Human), UniProt P29275); test: Adenosine receptor activity assay (Table 1), A2B activity; format: biochemical; details: for IC50: read-out: Ave A2B cAMP IC50
# [5] = Hepatocyte intrinsic clearance, rat; format: in vitro ADME; details: hepatocytes
# [6] = Hepatocyte intrinsic clearance, human; format: in vitro ADME; details: hepatocytes
# adenosine A1 receptor [7] = target: T1, adenosine A1 receptor; test: Adenosine receptor activity assay (Table 1), A1 cAMP; format: cell-based
# [8] = test system: CYP 450 (isoform not given); test: CYP450 inhibition at 10 μM; format: in vitro ADME; details: read-out: CYP 450 % INH @ 10 μM
# adenosine A3 receptor [9] = target: T2, adenosine A3 receptor; test: Adenosine receptor activity assay (Table 1), A3 cAMP; format: cell-based
# [10] = A2A activity to the A2B activity, A2A/A2B
# [11] = A2A activity to A2B activity (A2A/A2B)
# Chain of adenosine A2B receptor (P29275 whole entry): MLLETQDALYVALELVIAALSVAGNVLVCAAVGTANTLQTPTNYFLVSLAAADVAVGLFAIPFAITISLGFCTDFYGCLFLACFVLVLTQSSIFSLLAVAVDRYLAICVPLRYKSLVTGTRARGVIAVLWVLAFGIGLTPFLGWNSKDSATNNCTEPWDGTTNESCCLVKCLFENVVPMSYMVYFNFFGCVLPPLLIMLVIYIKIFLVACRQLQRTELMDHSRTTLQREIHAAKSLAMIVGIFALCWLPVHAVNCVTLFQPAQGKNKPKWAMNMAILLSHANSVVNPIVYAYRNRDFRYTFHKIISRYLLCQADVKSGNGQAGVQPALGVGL
# Chain of adenosine A2A receptor (P29274 whole entry): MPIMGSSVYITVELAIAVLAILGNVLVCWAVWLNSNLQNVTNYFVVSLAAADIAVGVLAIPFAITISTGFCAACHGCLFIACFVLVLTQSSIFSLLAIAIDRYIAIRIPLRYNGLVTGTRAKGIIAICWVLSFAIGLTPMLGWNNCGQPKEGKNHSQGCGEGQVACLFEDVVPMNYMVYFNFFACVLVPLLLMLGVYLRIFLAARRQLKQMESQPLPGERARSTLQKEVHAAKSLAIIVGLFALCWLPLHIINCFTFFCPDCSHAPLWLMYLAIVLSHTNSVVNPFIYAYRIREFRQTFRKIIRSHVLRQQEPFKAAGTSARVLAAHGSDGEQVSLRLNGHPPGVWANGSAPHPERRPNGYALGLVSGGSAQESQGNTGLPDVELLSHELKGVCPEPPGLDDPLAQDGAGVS
# T2 sequence (P0DMS8 whole entry): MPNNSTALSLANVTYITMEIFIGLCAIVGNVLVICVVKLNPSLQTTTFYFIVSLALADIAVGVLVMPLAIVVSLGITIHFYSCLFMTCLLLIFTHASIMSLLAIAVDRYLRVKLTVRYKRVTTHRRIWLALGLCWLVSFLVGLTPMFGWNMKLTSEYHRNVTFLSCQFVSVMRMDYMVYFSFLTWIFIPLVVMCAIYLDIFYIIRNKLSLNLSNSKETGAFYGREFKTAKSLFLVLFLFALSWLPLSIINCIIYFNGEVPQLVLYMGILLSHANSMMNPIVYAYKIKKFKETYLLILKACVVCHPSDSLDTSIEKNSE
# T1 sequence (P30542 whole entry): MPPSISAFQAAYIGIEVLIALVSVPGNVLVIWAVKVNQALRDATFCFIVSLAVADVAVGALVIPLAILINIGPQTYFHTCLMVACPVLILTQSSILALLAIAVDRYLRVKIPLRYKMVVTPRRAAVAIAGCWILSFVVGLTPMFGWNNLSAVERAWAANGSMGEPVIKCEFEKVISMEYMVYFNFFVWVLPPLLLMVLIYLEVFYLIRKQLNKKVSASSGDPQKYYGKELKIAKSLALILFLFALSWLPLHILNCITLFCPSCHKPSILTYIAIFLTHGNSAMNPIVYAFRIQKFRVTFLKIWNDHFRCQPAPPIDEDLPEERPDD
IC50 (adenosine A1 receptor [1]) [µM],IC50 (adenosine A3 receptor [2]) [µM],IC50 (adenosine A2A receptor) [µM],LM CLint [3] [μL/min/mg/protein],LM CLint [4] [μL/min/mg/protein],Ratio (adenosine A2B receptor; [10]),IC50 (adenosine A2B receptor) [µM],hepatocyte CLint [5] [µL/min/1e6 cells],hepatocyte CLint [6] [µL/min/1e6 cells],IC50 (adenosine A1 receptor [7]) [µM],inhibition at 10 µM [8] [%],IC50 (adenosine A3 receptor [9]) [µM],Ratio (adenosine A2B receptor; [11]),Structure (SMILES)
0.05 to 0.1,> 0.5,0.01 to 0.05,82.97,56.26,21.01,< 0.01,–,–,–,–,–,–,"Cc1csc2c(C(=O)N3CCC3)nc(N[C@@H](C)c3cncc(F)c3)nc12 [Example Z415, (S)-Azetidin-1-yl(2-((1-(5-fluoropyridin-3-yl)ethyl)amino)-7-methylthieno[3,2-d]pyrimidin-4-yl)methanone]"
> 0.5,> 0.5,0.01 to 0.05,6.17,16.99,4.68,< 0.01,–,–,–,–,–,–,"C[C@H](Nc1nc(C(=O)N2CC(NC(=O)C3CC3)C2)c2sccc2n1)c1cncc(F)c1 [Example Z517, (S)—N-(1-(2-((1-(5-Fluoropyridin-3-yl)ethyl)amino)thieno[3,2-d]pyrimidine-4-carbonyl)azetidin-3-yl)cyclopropanecarboxamide]"
> 0.5,0.05 to 0.1,0.01 to 0.05,82.93,314.14,0.64,0.01 to 0.05,–,–,–,–,–,–,"COc1cccc(CNC(=O)c2nc(N[C@@H](C)c3ccccn3)nc3c(C)csc23)n1 [Example Z450, (S)—N-((6-Methoxypyridin-2-yl)methyl)-7-methyl-2-((1-(pyridin-2-yl)ethyl)amino)thieno[3,2-d]pyrimidine-4-carboxamide]"
–,–,0.1 to 0.5,–,–,–,< 0.01,51.7,20.3,> 0.5,46,0.05 to 0.1,162.88,"CNc1cc2nc(N[C@@H](C)c3cncc(F)c3)nc(C(=O)N3CCCC3)c2s1 [Example Z210, (S)-(2-((1-(5-Fluoropyridin-3-yl)ethyl)amino)-6-(methylamino)thieno[3,2-d]pyrimidin-4-yl)(pyrrolidin-1-yl)methanone]"
–,–,0.1 to 0.5,–,–,–,< 0.01,17.2,15.6,> 0.5,37.6,> 0.5,84.08,"C[C@H](Nc1nc(C(=O)N2CC[C@H](CO)C2)c2sccc2n1)c1cncc(F)c1 [Example Z294, (2-(((S)-1-(5-Fluoropyridin-3-yl)ethyl)amino)thieno[3,2-d]pyrimidin-4-yl)((S)-3-(hydroxymethyl)pyrrolidin-1-yl)methanone]"
> 0.5,> 0.5,> 0.5,4.85,48.47,159.87,0.01 to 0.05,–,–,–,–,–,–,"Cc1cc2nc(N[C@@H](C)c3cncc(F)c3)nc(C(=O)NCC[C@H]3CCNC3)c2s1 [Example Z463, 2-(((S)-1-(5-Fluoropyridin-3-yl)ethyl)amino)-6-methyl-N-(2-((R)-pyrrolidin-3-yl)ethyl)thieno[3,2-d]pyrimidine-4-carboxamide]"
–,–,> 0.5,–,–,–,< 0.01,4.61,16.1,> 0.5,52.5,0.05 to 0.1,340.19,"CNc1cc2nc(N[C@@H](C)c3cncc(F)c3)nc(C(=O)N3CC[C@@H](O)C3)c2s1 [Example Z224, (2-(((S)-1-(5-Fluoropyridin-3-yl)ethyl)amino)-6-(methylamino)thieno[3,2-d]pyrimidin-4-yl)((R)-3-hydroxypyrrolidin-1-yl)methanone]"
–,–,0.1 to 0.5,–,–,–,< 0.01,25.3,59.6,> 0.5,90,> 0.5,127.82,"Cc1cc2nc(N[C@@H](C)c3cccnc3)nc(C(=O)N3CCCC3)c2s1 [Example Z213, (S)-(6-Methyl-2-((1-(pyridin-3-yl)ethyl)amino)thieno[3,2-d]pyrimidin-4-yl)(pyrrolidin-1-yl)methanone]"
–,–,> 0.5,–,–,–,0.01 to 0.05,17.2,4.11,> 0.5,-18.8,> 0.5,77.76,"Cc1cc2nc(N[C@@H](C)c3ccccn3)nc(C(=O)N3CC[C@H](O)C3)c2s1 [Example Z282, ((S)-3-Hydroxypyrrolidin-1-yl)(6-methyl-2-(((S)-1-(pyridin-2-yl)ethyl)amino)thieno[3,2-d]pyrimidin-4-yl)methanone]"
–,–,0.1 to 0.5,–,–,–,< 0.01,21.1,44.5,> 0.5,57,> 0.5,43.99,"C[C@H](Nc1nc(C(=O)N2CC[C@H](F)C2)c2sccc2n1)c1cncc(F)c1 [Example Z225, (2-(((S)-1-(5-Fluoropyridin-3-yl)ethyl)amino)thieno[3,2-d]pyrimidin-4-yl)((S)-3-fluoropyrrolidin-1-yl)methanone]"
> 0.5,> 0.5,0.01 to 0.05,35.20,75.91,0.22,> 0.5,–,–,–,–,–,–,"COc1ccc([C@@H](C)Nc2nc(C(=O)NCc3ccc(OC)nc3)c3sccc3n2)cc1 [Example Z465, (R)-2-((1-(4-Methoxyphenyl)ethyl)amino)-N-((6-methoxypyridin-3-yl)methyl)thieno[3,2-d]pyrimidine-4-carboxamide]"
–,–,0.1 to 0.5,–,–,–,< 0.01,51.7,23.8,> 0.5,52,0.05 to 0.1,83.47,"CO[C@H]1CCN(C(=O)c2nc(N[C@@H](C)c3cncc(F)c3)nc3cc(C)sc23)C1 [Example Z301, (2-(((S)-1-(5-Fluoropyridin-3-yl)ethyl)amino)-6-methylthieno[3,2-d]pyrimidin-4-yl)((S)-3-methoxypyrrolidin-1-yl)methanone]"
–,–,–,228.45,85.16,–,0.01 to 0.05,–,–,–,–,–,–,"CC(=O)Nc1ccc(CCNC(=O)c2nc(N[C@@H](C)c3cncc(F)c3)nc3ccsc23)cc1 [Example Z421, (S)—N-(4-Acetamidophenethyl)-2-((1-(5-fluoropyridin-3-yl)ethyl)amino)thieno[3,2-d]pyrimidine-4-carboxamide]"
–,–,–,0.69,9.09,–,0.01 to 0.05,–,–,–,–,–,–,"C[C@H](Nc1nc(C(=O)N2CC(CN)C2)c2sccc2n1)c1cncc(F)c1 [Example Z419, (S)-(3-(Aminomethyl)azetidin-1-yl)(2-((1-(5-fluoropyridin-3-yl)ethyl)amino)thieno[3,2-d]pyrimidin-4-yl)methanone]"
–,–,0.1 to 0.5,–,–,–,< 0.01,18.8,5.35,> 0.5,-13.9,> 0.5,64.00,"Cc1cc2nc(N[C@@H](C)c3ccccn3)nc(C(=O)N3CC[C@@H](O)C3)c2s1 [Example Z298, ((R)-3-Hydroxypyrrolidin-1-yl)(6-methyl-2-(((S)-1-(pyridin-2-yl)ethyl)amino)thieno[3,2-d]pyrimidin-4-yl)methanone]"
–,–,0.1 to 0.5,–,–,–,< 0.01,53.2,15.8,> 0.5,67,0.05 to 0.1,201.82,"CNc1cc2nc(N[C@@H](C)c3cncc(F)c3)nc(C(=O)N3CCC3)c2s1 [Example Z211, (S)-Azetidin-1-yl(2-((1-(5-fluoropyridin-3-yl)ethyl)amino)-6-(methylamino)thieno[3,2-d]pyrimidin-4-yl)methanone]"
–,–,–,2.64,5.32,–,0.01 to 0.05,–,–,–,–,–,–,"C[C@H](Nc1nc(C(=O)N2CC(N)C2)c2sccc2n1)c1cncc(F)c1 [Example Z401, (S)-(3-Aminoazetidin-1-yl)(2-((1-(5-fluoropyridin-3-yl)ethyl)amino)thieno[3,2-d]pyrimidin-4-yl)methanone]"
–,–,0.1 to 0.5,–,–,–,< 0.01,42.7,26.5,> 0.5,80.5,> 0.5,54.37,"Cc1cc2nc(N[C@@H](C)c3cccnc3)nc(C(=O)N3CCC3)c2s1 [Example Z283, (S)-Azetidin-1-yl(6-methyl-2-((1-(pyridin-3-yl)ethyl)amino)thieno[3,2-d]pyrimidin-4-yl)methanone]"
